In article PMC10574143, “Exploring the Solubility Limits of Edaravone in Neat Solvents and Binary Mixtures: Experimental and Machine Learning Study” (Molecules, 2023):

Experiments:
[1] = poor aqueous solubility; no reference given; cited from earlier work
[2] = shake-flask solubility measurement, spectrophotometric at 243 nm; format: physicochemical
Method: To assess the solubility of EDA in various solvents, excess amounts of EDA were added to test tubes containing either a specific solvent or a binary mixture containing the organic solvent and water in different molar proportions. The saturated solutions were then placed in an Orbital Shaker Incubator ES-20/60 from Biosan (Riga, Latvia) and incubated at various temperatures for 24 h. Four temperature points, ranging from 25 °C to 40 °C with 5 °C intervals, were used for the incubation. The incubator temperature was precisely adjusted to within 0.1 degrees, with a variance of 0.5 degrees during the 24 h cycle. The samples were simultaneously mixed at 60 rev/min. Next, the samples were filtered using syringes equipped with PTFE filters with a pore size of 0.22 µm. To prevent precipitation due to temperature differences between the solutions and instruments, all test tubes, pipette tips, syringes, and filters were preheated. They were placed in the same incubator as the samples and heated to the same temperature before handling. This step was particularly crucial when dealing with elevated temperatures, as the temperature difference could be substantial. After filtration, small quantities of the obtained filtrate were diluted in test tubes containing methanol and measured spectrophotometrically. The density of each solution was measured by weighing a 1 mL volume in 10 mL volumetric flasks using an Eppendorf Reference 2 pipette (Hamburg, Germany) with a systematic error of 6 μL. The RADWAG AS 110 R2.PLUS analytical balance (Radom, Poland) with a precision of 0.1 mg was also used for this purpose. Solubility determination was conducted using the A360 spectrophotometer from AOE Instruments (Shanghai, China). Spectra were recorded in the wavelength range of 190 nm to 400 nm with a resolution of 1 nm. Methanol was used for both diluting the samples and the initial calibration of the spectrophotometer. The analytical wavelength was set at 243 nm, and the absorbance at this wavelength was used to determine the EDA concentration in the samples and subsequently calculate its mole fractions. To ensure accuracy, three separate measurements were performed, and the resulting values were averaged. The calibration curve for EDA was prepared by diluting an initial stock solution and measuring the resulting solutions’ spectrophotometric properties at decreased concentrations. The molar concentrations of the measured solutions ranged from 0.0023 to 0.023 mg/mL. The relationship between the absorbance values at 243 nm and the solution concentration was described by a linear equation A = 85.603 × C − 0.0179, with high linearity denoted by the determination coefficient R^2 equal to 0.9993.

## CC1=NN(c2ccccc2)C(=O)C1 [Edaravone, 5-methyl-2-phenyl-4H-pyrazol-3-one]
[1]
  Biopharmaceutics Classification System (BCS) category: Class IV
[2]; 1,2-propanediol (PG)-water, 25 °C
  solubility at x2* = 0.9 versus pure solvent: higher solubility compared to pure solvents
[2]; 1,3-butanediol (BG)-water, 25 °C
  solubility at x2* = 0.9 versus pure solvent: higher solubility compared to pure solvents
[2]; BG-water, x2*=0.0 (water), 25 °C
  Edaravone solubility (xEDA): 0.02 (<±0.01) xEDA, ×102
[2]; BG-water, x2*=0.1, 25 °C
  Edaravone solubility (xEDA): 0.12 (±0.02) xEDA, ×102
[2]; BG-water, x2*=0.2, 25 °C
  Edaravone solubility (xEDA): 0.29 (±0.04) xEDA, ×102
[2]; BG-water, x2*=0.3, 25 °C
  Edaravone solubility (xEDA): 0.53 (±0.03) xEDA, ×102
[2]; BG-water, x2*=0.4, 25 °C
  Edaravone solubility (xEDA): 0.83 (±0.04) xEDA, ×102
[2]; BG-water, x2*=0.5, 25 °C
  Edaravone solubility (xEDA): 1.07 (±0.05) xEDA, ×102
[2]; BG-water, x2*=0.6, 25 °C
  Edaravone solubility (xEDA): 1.27 (±0.03) xEDA, ×102
[2]; BG-water, x2*=0.7, 25 °C
  Edaravone solubility (xEDA): 1.42 (±0.05) xEDA, ×102
[2]; BG-water, x2*=0.8, 25 °C
  Edaravone solubility (xEDA): 1.50 (±0.03) xEDA, ×102
[2]; BG-water, x2*=0.9, 25 °C
  Edaravone solubility (xEDA): 1.51 (±0.04) xEDA, ×102
[2]; DG-water, x2*=0.0 (water), 25 °C
  Edaravone solubility (xEDA): 0.02 (<±0.01) xEDA, ×102
[2]; DG-water, x2*=0.1, 25 °C
  Edaravone solubility (xEDA): 0.09 (±0.01) xEDA, ×102
[2]; DG-water, x2*=0.2, 25 °C
  Edaravone solubility (xEDA): 0.25 (±0.01) xEDA, ×102
[2]; DG-water, x2*=0.3, 25 °C
  Edaravone solubility (xEDA): 0.48 (±0.04) xEDA, ×102
[2]; DG-water, x2*=0.4, 25 °C
  Edaravone solubility (xEDA): 0.74 (±0.03) xEDA, ×102
[2]; DG-water, x2*=0.5, 25 °C
  Edaravone solubility (xEDA): 1.09 (±0.01) xEDA, ×102
[2]; DG-water, x2*=0.6, 25 °C
  Edaravone solubility (xEDA): 1.39 (±0.02) xEDA, ×102
[2]; DG-water, x2*=0.7, 25 °C
  Edaravone solubility (xEDA): 1.65 (±0.05) xEDA, ×102
[2]; DG-water, x2*=0.8, 25 °C
  Edaravone solubility (xEDA): 1.87 (±0.04) xEDA, ×102
[2]; DG-water, x2*=0.9, 25 °C
  Edaravone solubility (xEDA): 1.98 (±0.02) xEDA, ×102
[2]; PG-water, x2*=0.0 (water), 25 °C
  Edaravone solubility (xEDA): 0.02 (<±0.01) xEDA, ×102
[2]; PG-water, x2*=0.1, 25 °C
  Edaravone solubility (xEDA): 0.06 (±0.01) xEDA, ×102
[2]; PG-water, x2*=0.2, 25 °C
  Edaravone solubility (xEDA): 0.15 (±0.01) xEDA, ×102
[2]; PG-water, x2*=0.3, 25 °C
  Edaravone solubility (xEDA): 0.26 (±0.02) xEDA, ×102
[2]; PG-water, x2*=0.4, 25 °C
  Edaravone solubility (xEDA): 0.40 (±0.02) xEDA, ×102
[2]; PG-water, x2*=0.5, 25 °C
  Edaravone solubility (xEDA): 0.54 (±0.02) xEDA, ×102
[2]; PG-water, x2*=0.6, 25 °C
  Edaravone solubility (xEDA): 0.71 (±0.02) xEDA, ×102
[2]; PG-water, x2*=0.7, 25 °C
  Edaravone solubility (xEDA): 0.86 (±0.02) xEDA, ×102
[2]; PG-water, x2*=0.8, 25 °C
  Edaravone solubility (xEDA): 0.99 (±0.02) xEDA, ×102
[2]; PG-water, x2*=0.9, 25 °C
  Edaravone solubility (xEDA): 1.00 (±0.02) xEDA, ×102
[2]; TG-water, x2*=0.0 (water), 25 °C
  Edaravone solubility (xEDA): 0.02 (<±0.01) xEDA, ×102
[2]; TG-water, x2*=0.1, 25 °C
  Edaravone solubility (xEDA): 0.31 (±0.04) xEDA, ×102
[2]; TG-water, x2*=0.2, 25 °C
  Edaravone solubility (xEDA): 0.78 (±0.03) xEDA, ×102
[2]; TG-water, x2*=0.3, 25 °C
  Edaravone solubility (xEDA): 1.28 (±0.07) xEDA, ×102
[2]; TG-water, x2*=0.4, 25 °C
  Edaravone solubility (xEDA): 1.72 (±0.06) xEDA, ×102
[2]; TG-water, x2*=0.5, 25 °C
  Edaravone solubility (xEDA): 2.11 (±0.08) xEDA, ×102
[2]; TG-water, x2*=0.6, 25 °C
  Edaravone solubility (xEDA): 2.54 (±0.08) xEDA, ×102
[2]; TG-water, x2*=0.7, 25 °C
  Edaravone solubility (xEDA): 3.03 (±0.09) xEDA, ×102
[2]; TG-water, x2*=0.8, 25 °C
  Edaravone solubility (xEDA): 3.51 (±0.09) xEDA, ×102
[2]; TG-water, x2*=0.9, 25 °C
  Edaravone solubility (xEDA): 3.58 (±0.06) xEDA, ×102
  mole fraction solubility xEDA: 3.58 × 10^−2 mole fraction
[2]; diethylene glycol (DG)-water, 25 °C
  cosolvency effect in aqueous binary solvent: no cosolvency effect was observed
[2]; neat 1,2-propanediol (PG), x2*=1.0, 25 °C
  Edaravone solubility (xEDA): 0.85 (±0.01) xEDA, ×102
[2]; neat 1,3-butanediol (BG), x2*=1.0, 25 °C
  Edaravone solubility (xEDA): 1.43 (±0.04) xEDA, ×102
[2]; neat 2,4-dimethylphenol (DMP), 25 °C
  Edaravone solubility (xEDA): 1.88 (±0.05) xEDA, ×102
[2]; neat 2,4-dimethylphenol (DMP), 30 °C
  Edaravone solubility (xEDA): 2.82 (±0.58) xEDA, ×102
[2]; neat 2,4-dimethylphenol (DMP), 35 °C
  Edaravone solubility (xEDA): 4.08 (±0.21) xEDA, ×102
[2]; neat 2,4-dimethylphenol (DMP), 40 °C
  Edaravone solubility (xEDA): 5.65 (±0.25) xEDA, ×102
[2]; neat 4-formylmorpholine (4FM), 25 °C
  Edaravone solubility (xEDA): 1.11 (±0.01) xEDA, ×102
[2]; neat 4-formylmorpholine (4FM), 30 °C
  Edaravone solubility (xEDA): 1.46 (±0.08) xEDA, ×102
[2]; neat 4-formylmorpholine (4FM), 35 °C
  Edaravone solubility (xEDA): 1.76 (±0.19) xEDA, ×102
[2]; neat 4-formylmorpholine (4FM), 40 °C
  Edaravone solubility (xEDA): 2.17 (±0.01) xEDA, ×102
[2]; neat DMSO, 25 °C
  Edaravone solubility (xEDA): 7.58 (±0.32) xEDA, ×102
[2]; neat DMSO, 30 °C
  Edaravone solubility (xEDA): 12.25 (±0.16) xEDA, ×102
[2]; neat DMSO, 35 °C
  Edaravone solubility (xEDA): 20.1 (±0.15) xEDA, ×102
[2]; neat DMSO, 40 °C
  Edaravone solubility (xEDA): 29.81 (±1.14) xEDA, ×102
  mole fraction solubility xEDA: 29.81 × 10^−2 mole fraction
[2]; neat NMP, 25 °C
  Edaravone solubility (xEDA): 3.83 (±0.01) xEDA, ×102
[2]; neat NMP, 30 °C
  Edaravone solubility (xEDA): 4.96 (±0.49) xEDA, ×102
[2]; neat NMP, 35 °C
  Edaravone solubility (xEDA): 6.94 (±0.19) xEDA, ×102
[2]; neat NMP, 40 °C
  Edaravone solubility (xEDA): 8.61 (±0.21) xEDA, ×102
[2]; neat TEG, 25 °C
  mole fraction solubility xEDA: 4.63 × 10^−2 mole fraction
[2]; neat TEG, 40 °C
  mole fraction solubility xEDA: 21.21 × 10^−2 mole fraction
[2]; neat diethylene glycol (DG), x2*=1.0, 25 °C
  Edaravone solubility (xEDA): 2.04 (±0.06) xEDA, ×102
[2]; neat diglyme (DIG), 25 °C
  Edaravone solubility (xEDA): 2.05 (±0.02) xEDA, ×102
[2]; neat diglyme (DIG), 30 °C
  Edaravone solubility (xEDA): 2.69 (±0.04) xEDA, ×102
[2]; neat diglyme (DIG), 35 °C
  Edaravone solubility (xEDA): 3.33 (±0.11) xEDA, ×102
[2]; neat diglyme (DIG), 40 °C
  Edaravone solubility (xEDA): 4.16 (±0.06) xEDA, ×102
[2]; neat tetraglyme (TEG), 25 °C
  Edaravone solubility (xEDA): 4.63 (±0.05) xEDA, ×102
[2]; neat tetraglyme (TEG), 30 °C
  Edaravone solubility (xEDA): 8.63 (±0.22) xEDA, ×102
[2]; neat tetraglyme (TEG), 35 °C
  Edaravone solubility (xEDA): 13.05 (±0.19) xEDA, ×102
[2]; neat tetraglyme (TEG), 40 °C
  Edaravone solubility (xEDA): 21.21 (±0.64) xEDA, ×102
[2]; neat triethylene glycol (TG), 25 °C
  mole fraction solubility xEDA: 2.75 × 10^−2 mole fraction
[2]; neat triethylene glycol (TG), x2*=1.0, 25 °C
  Edaravone solubility (xEDA): 2.75 (±0.08) xEDA, ×102
[2]; neat triglyme (TIG), 25 °C
  Edaravone solubility (xEDA): 1.53 (±0.07) xEDA, ×102
[2]; neat triglyme (TIG), 30 °C
  Edaravone solubility (xEDA): 2.20 (±0.04) xEDA, ×102
[2]; neat triglyme (TIG), 35 °C
  Edaravone solubility (xEDA): 3.11 (±0.17) xEDA, ×102
[2]; neat triglyme (TIG), 40 °C
  Edaravone solubility (xEDA): 4.57 (±0.39) xEDA, ×102
